# In patent US12581252B2, “Substituted pyrrolo[3,4-b]pyridines as PI3K-α inhibitors” (Relay Therapeutics, Inc., priority 2020, dated 2026):
# Target: H1047R PIK3CA enzyme (Homo sapiens, UniProt P42336, H1047R)
# Assay: ADP-Glo Biochemical PIK3CA Kinase Assay
# Sequence of H1047R PIK3CA enzyme (P42336 whole entry H1047R): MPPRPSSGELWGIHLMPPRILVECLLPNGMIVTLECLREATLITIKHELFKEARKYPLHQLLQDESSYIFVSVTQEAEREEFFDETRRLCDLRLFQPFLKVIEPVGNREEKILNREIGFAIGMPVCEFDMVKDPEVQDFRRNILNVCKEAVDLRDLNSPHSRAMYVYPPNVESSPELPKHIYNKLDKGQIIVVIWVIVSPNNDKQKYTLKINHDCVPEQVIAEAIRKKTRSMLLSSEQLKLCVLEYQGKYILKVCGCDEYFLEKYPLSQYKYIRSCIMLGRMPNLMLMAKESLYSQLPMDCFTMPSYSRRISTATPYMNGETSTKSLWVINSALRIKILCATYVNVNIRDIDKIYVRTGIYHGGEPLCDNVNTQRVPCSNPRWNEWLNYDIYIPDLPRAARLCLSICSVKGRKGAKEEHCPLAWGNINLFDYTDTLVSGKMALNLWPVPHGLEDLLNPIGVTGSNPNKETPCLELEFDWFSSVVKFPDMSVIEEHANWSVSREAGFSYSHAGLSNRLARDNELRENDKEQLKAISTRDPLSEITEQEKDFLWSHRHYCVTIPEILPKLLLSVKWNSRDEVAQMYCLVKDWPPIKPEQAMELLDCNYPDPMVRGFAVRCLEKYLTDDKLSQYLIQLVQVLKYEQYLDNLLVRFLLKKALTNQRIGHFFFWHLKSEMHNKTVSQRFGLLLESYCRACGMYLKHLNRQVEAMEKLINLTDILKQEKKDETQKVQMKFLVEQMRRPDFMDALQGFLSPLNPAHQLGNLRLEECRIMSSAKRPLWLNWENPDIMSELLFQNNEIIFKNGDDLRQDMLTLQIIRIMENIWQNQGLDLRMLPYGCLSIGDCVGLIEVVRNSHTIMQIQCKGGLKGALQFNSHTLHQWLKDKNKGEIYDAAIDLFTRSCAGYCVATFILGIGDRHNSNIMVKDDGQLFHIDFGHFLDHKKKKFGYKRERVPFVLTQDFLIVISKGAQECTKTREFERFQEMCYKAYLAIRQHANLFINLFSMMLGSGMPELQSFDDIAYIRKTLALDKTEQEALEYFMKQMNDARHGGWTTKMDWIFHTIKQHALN
# Sequence of H1047R PIK3CA enzyme (P27986 whole entry partner): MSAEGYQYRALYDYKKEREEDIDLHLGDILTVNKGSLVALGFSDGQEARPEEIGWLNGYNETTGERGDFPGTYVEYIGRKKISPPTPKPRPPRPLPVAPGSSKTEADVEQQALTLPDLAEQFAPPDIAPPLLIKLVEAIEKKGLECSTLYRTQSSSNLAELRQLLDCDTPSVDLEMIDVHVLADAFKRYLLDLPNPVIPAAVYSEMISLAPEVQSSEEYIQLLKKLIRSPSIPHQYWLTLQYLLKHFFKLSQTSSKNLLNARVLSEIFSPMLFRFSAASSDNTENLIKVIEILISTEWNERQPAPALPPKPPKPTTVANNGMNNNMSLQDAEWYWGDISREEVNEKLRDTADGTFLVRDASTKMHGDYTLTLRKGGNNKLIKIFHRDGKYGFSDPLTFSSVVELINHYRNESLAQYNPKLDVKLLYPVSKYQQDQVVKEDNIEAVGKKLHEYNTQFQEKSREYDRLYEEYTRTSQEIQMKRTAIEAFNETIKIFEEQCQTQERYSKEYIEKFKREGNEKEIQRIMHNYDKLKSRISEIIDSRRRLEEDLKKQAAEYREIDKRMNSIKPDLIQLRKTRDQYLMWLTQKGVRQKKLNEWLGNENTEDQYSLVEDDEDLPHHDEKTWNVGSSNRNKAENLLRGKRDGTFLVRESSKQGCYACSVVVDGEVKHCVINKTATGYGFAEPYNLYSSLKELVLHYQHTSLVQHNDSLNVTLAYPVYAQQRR
row,SMILES,IC50
1,O=C(Nc1cc(-c2ccn3ncnc3c2)cc2c1C(c1cc(F)ccc1Cl)NC2=O)c1cc(F)cc(C(F)(F)F)c1 (stereo not drawn) [Compound I-1371],≤ 0.1 µM
2,O=C(Nc1cc(CCC(F)(F)F)nc2c1C(c1cc(F)ccc1Cl)NC2=O)c1cc(F)cc(C(F)(F)F)c1 (stereo not drawn) [Compound I-529],≤ 0.1 µM
3,O=C(Nc1cc(Br)cc2c1C(c1ccc(F)cc1Cl)NC2=O)c1cc(F)cc(C(F)(F)F)c1 (stereo not drawn) [Compound I-756],0.1 to 0.5 µM
4,Cc1cc2nccnc2cc1-c1cc(NC(=O)c2cc(F)cc(C(F)(F)F)c2)c2c(c1)C(=O)NC2c1cc(F)ccc1Cl (stereo not drawn) [Compound I-975],0.1 to 0.5 µM
5,"O=C(Nc1cc(N[C@H]2C[C@H](O)C2)cc2c1C(c1cc(F)ccc1Cl)NC2=O)c1cc(F)cc(C(F)(F)F)c1 (single isomer, unassigned) [Compound I-609]",≤ 0.1 µM
6,CNc1cc(C2NC(=O)c3cccc(NC(=O)c4cc(F)cc(C(F)(F)F)c4)c32)ccn1 (stereo not drawn) [Compound I-874],10 to 100 µM
7,N#CCn1cc(-c2cc(NC(=O)c3cc(F)cc(C(F)(F)F)c3)c3c(c2)C(=O)NC3c2cc(F)ccc2Cl)cn1 (stereo not drawn) [Compound I-1420],≤ 0.1 µM
8,O=C(CCC(F)F)Nc1cc(NC(=O)c2cc(F)cc(C(F)(F)F)c2)c2c(c1)C(=O)NC2c1cc(F)ccc1Cl (stereo not drawn) [Compound I-360],≤ 0.1 µM
9,O=C(Nc1cccc2c1C(c1cc(F)ccc1Cl)NC2=O)c1cc(O)cc(C(F)(F)F)c1 (stereo not drawn) [Compound I-448],0.5 to 1 µM
10,CC1(C)CC1C1NC(=O)c2cccc(NC(=O)c3cc(F)cc(C(F)(F)F)c3)c21 (stereo not drawn) [Compound I-1766],1 to 10 µM
11,CC(=O)Nc1cc(NC(=O)c2cc(F)cc(C(F)(F)F)c2)c2c(c1)C(=O)N[C@H]2c1cc(F)ccc1Cl [Compound I-461],≤ 0.1 µM
12,O=C1NCC(c2cc(NC(=O)c3cc(F)cc(C(F)(F)F)c3)c3c(c2)C(=O)NC3c2cc(F)ccc2Cl)O1 (stereo not drawn) [Compound I-1359],≤ 0.1 µM
13,N#Cc1cnc2ccc(-c3cc(NC(=O)c4cc(F)cc(C(F)(F)F)c4)c4c(c3)C(=O)NC4c3cc(F)ccc3Cl)cc2c1 (stereo not drawn) [Compound I-1603],≤ 0.1 µM
14,"O=C(Nc1cc(-c2cnn(C(F)F)c2)cc2c1[C@@H](c1cc(F)ccc1Cl)NC2=O)c1cc(F)cc(C(F)(F)F)c1 (single isomer, unassigned) [Compound I-1739]",1 to 10 µM
15,O=C1NC(c2cc(F)ccc2Cl)c2c(Nc3nn(C4CC4)c4ccccc34)cc(-c3ccc4ncnn4c3)cc21 (stereo not drawn) [Compound I-1809],1 to 10 µM
16,Cc1cc2cccc(C(=O)Nc3cc(Br)cc4c3C(c3cc(F)ccc3Cl)NC4=O)c2o1 (stereo not drawn) [Compound I-635],1 to 10 µM
17,Cc1ccccc1C1NC(=O)c2cccc(NC(=O)c3nsc4ccc(Br)cc34)c21 (stereo not drawn) [Compound I-376],0.5 to 1 µM
18,O=C1NC(c2cc(F)ccc2Cl)c2c(NC(=O)N3CCCC(C(F)(F)F)C3)cc(Br)cc21 (mixture of isomers) [Compound I-432],0.5 to 1 µM
19,CN(C)S(=O)(=O)n1nccc1-c1cc(NC(=O)c2cc(F)cc(C(F)(F)F)c2)c2c(c1)C(=O)N[C@@H]2c1cc(F)ccc1Cl [Compound I-1598],0.5 to 1 µM
20,Nc1cc(-c2ccc3ncnn3c2)cc2c1C(c1cc(F)ccc1Cl)NC2=O (stereo not drawn) [Compound I-1671],10 to 100 µM
21,O=C(Nc1cc(Br)cc2c1C(c1cccc(F)c1Cl)NC2=O)c1cc(F)cc(C(F)(F)F)c1 (stereo not drawn) [Compound I-672],≤ 0.1 µM

row,SMILES,IC50
1,CC(C)OC(C(=O)Nc1cc(-c2ccc3ncnn3c2)cc2c1C(c1cc(F)ccc1Cl)NC2=O)c1ccccc1 (stereo not drawn) [Compound I-1662],1 to 10 µM
2,O=C(Nc1cc(-c2cnc(C(F)(F)F)nc2)cc2c1C(c1cc(F)ccc1Cl)NC2=O)c1cc(F)cc(C(F)(F)F)c1 (stereo not drawn) [Compound I-823],≤ 0.1 µM
3,O=C(Nc1cc(C2CC23CC3)cc2c1C(c1cc(F)ccc1Cl)NC2=O)c1cc(F)cc(C(F)(F)F)c1 (stereo not drawn) [Compound I-1266],≤ 0.1 µM
4,O=C(Nc1cc(CC2(CO)COC2)cc2c1C(c1cc(F)ccc1Cl)NC2=O)c1cc(F)cc(C(F)(F)F)c1 (stereo not drawn) [Compound I-1339],≤ 0.1 µM
5,O=C(Nc1cc(Cl)nc2c1[C@@H](c1cc(F)ccc1Cl)NC2=O)c1cc(F)cc(C(F)(F)F)c1 [Compound I-617],≤ 0.1 µM
6,O=C(Nc1cc(Cl)nc2c1[C@H](c1cc(F)ccc1Cl)NC2=O)c1cc(F)cc(C(F)(F)F)c1 [Compound I-616],0.1 to 0.5 µM
7,O=C(Nc1cc(-n2cccn2)cc2c1[C@@H](c1cc(F)ccc1Cl)NC2=O)c1cc(F)cc(C(F)(F)F)c1 [Compound I-1070],1 to 10 µM
8,O=C(Nc1cc(Oc2ncccn2)cc2c1C(c1cc(F)ccc1Cl)NC2=O)c1cc(F)cc(C(F)(F)F)c1 (stereo not drawn) [Compound I-1202],0.1 to 0.5 µM
9,CS(=O)(=O)Cc1cc(NC(=O)c2cc(F)cc(Cl)c2)c2c(c1)C(=O)NC2c1cc(F)ccc1Cl (stereo not drawn) [Compound I-231],≤ 0.1 µM
10,O=C(Nc1cccc2c1C(c1cc(F)ccc1Cl)NC2=O)c1cc(C(F)(F)F)cc(Cl)n1 (stereo not drawn) [Compound I-724],1 to 10 µM
11,CC(C)(O)COc1ncc(-c2cc(NC(=O)c3cc(F)cc(C(F)(F)F)c3)c3c(c2)C(=O)NC3c2cc(F)ccc2Cl)cn1 (stereo not drawn) [Compound I-1529],≤ 0.1 µM
12,N#Cc1cc(F)cc(C(=O)Nc2ccnc3c2C(c2ccccc2Cl)NC3=O)c1 (stereo not drawn) [Compound I-235],10 to 100 µM
13,O=C(Nc1cc(Br)cc2c1C(c1cc(F)ccc1Cl)NC2=O)c1cc(Cl)ccc1C(F)F (stereo not drawn) [Compound I-911],1 to 10 µM
14,N#Cc1cnc2c(F)cc(-c3cc(NC(=O)c4cc(F)cc(C(F)(F)F)c4)c4c(c3)C(=O)NC4c3cc(F)ccc3Cl)cn12 (stereo not drawn) [Compound I-1797],≤ 0.1 µM
15,O=C(Nc1cc(C[n+]2ccccc2)cc2c1[C@H](c1cc(F)ccc1Cl)NC2=O)c1cc(F)cc(C(F)(F)F)c1 (racemic) [Compound I-1321],≤ 0.1 µM
16,COc1cc(F)c(F)c(C(=O)Nc2cccc3c2C(c2ccccc2C)NC3=O)c1 (stereo not drawn) [Compound I-341],10 to 100 µM
17,O=C1NC(c2cc(F)ccc2Cl)c2c(NC(=O)N3CCc4ccc(F)cc43)cc(Br)cc21 (stereo not drawn) [Compound I-1717],≤ 0.1 µM
18,O=C(Nc1cccc2c1C(c1ccc3ccccc3c1)NC2=O)c1cc(F)cc(C(F)(F)F)c1 (stereo not drawn) [Compound I-371],10 to 100 µM
19,O=C1NC(c2cnccc2Cl)c2c(NC(=O)c3nsc4ccccc34)cccc21 (stereo not drawn) [Compound I-160],0.5 to 1 µM
20,N#Cc1ncc(-c2cc(NC(=O)c3cc(F)cc(C(F)(F)F)c3)c3c(c2)C(=O)N[C@H]3c2cc(F)ccc2Cl)cn1 [Compound I-979],0.1 to 0.5 µM

# Further lines, results first:
row,IC50,SMILES
1,≤ 0.1 µM,O=C(Nc1cc(-c2cnn3ncnc3c2)cc2c1[C@H](c1cc(F)ccc1Cl)NC2=O)c1cc(F)cc(C(F)(F)F)c1 [Compound I-1872]
2,1 to 10 µM,NC1CN(C(=O)Nc2cc(Br)cc3c2C(c2cc(F)ccc2Cl)NC3=O)c2ccccc21 (stereo not drawn) [Compound I-2042]
3,10 to 100 µM,O=C1NC(c2cc(F)ccc2Cl)c2c(NC(=O)N3CCc4cc(C(F)(F)F)ccc43)cccc21 (stereo not drawn) [Compound I-2436]
4,10 to 100 µM,Cc1ccc2c(c1)CCN2C(=O)Nc1cccc2c1C(c1cc(F)ccc1Cl)NC2=O (stereo not drawn) [Compound I-2440]
5,1 to 10 µM,O=C(Nc1cc(Br)cc2c1C(c1cc(F)cc(F)c1)NC2=O)c1cc(F)cc(F)c1 (stereo not drawn) [Compound I-2156]
6,1 to 10 µM,"Cc1nccn1-c1cc(NC(=O)N2C[C@](O)(C(F)(F)F)c3cc(F)ccc32)c2c(c1)C(=O)N[C@@H]2c1cc(F)ccc1Cl (single isomer, unassigned) [Compound I-2662]"
7,≤ 0.1 µM,"O=C1N[C@H](c2cc(F)ccc2Cl)c2c(NC(=O)N3C[C@](O)(C(F)(F)F)c4cc(F)ccc43)cc(F)cc21 (single isomer, unassigned) [Compound I-2631]"
8,1 to 10 µM,"Cc1nccn1-c1cc(NC(=O)N2C[C@](O)(C(F)(F)F)c3cc(F)ccc32)c2c(c1)C(=O)N[C@H]2c1cc(F)ccc1Cl (single isomer, unassigned) [Compound I-2664]"
9,1 to 10 µM,"CCC[C@]1(O)CN(C(=O)Nc2cccc3c2[C@H](c2cc(F)ccc2Cl)NC3=O)c2ccc(F)cc21 (single isomer, unassigned) [Compound I-2458]"
10,1 to 10 µM,"C[C@@H](C#N)Oc1cc(NC(=O)c2cc(F)cc(C(F)(F)F)c2)c2c(c1)C(=O)N[C@@H]2c1cc(F)ccc1Cl (single isomer, unassigned) [Compound I-2007]"
11,0.1 to 0.5 µM,"CNc1cc(NC(=O)N2C[C@@](O)(C(F)(F)F)c3cc(F)ccc32)c2c(c1)C(=O)N[C@H]2c1cc(F)ccc1Cl (single isomer, unassigned) [Compound I-2642]"
12,0.1 to 0.5 µM,C[C@H]([C@@H]1C[C@@H](O)CN1C(=O)Nc1cccc2c1[C@H](c1cc(F)ccc1Cl)NC2=O)C(F)(F)F (racemic) [Compound I-2341]
13,1 to 10 µM,O=C1NC(c2cc(F)ccc2Cl)c2c(NC(=O)[C@H]3C[C@@H](C(F)(F)F)C3)cc(Br)cc21 (stereo partly drawn) [Compound I-1989]
14,≤ 0.1 µM,O=C(Nc1cc(-c2cn3c(F)cnc3cn2)cc2c1[C@H](c1cc(F)ccc1Cl)NC2=O)c1cc(F)cc(C(F)(F)F)c1 [Compound I-1878]
15,10 to 100 µM,CC(O)C(CC(=O)Nc1cccc2c1C(c1cc(F)ccc1Cl)NC2=O)C(C)C(F)(F)F (stereo not drawn) [Compound I-2198]
16,10 to 100 µM,N[C@H]1CCC[C@H](C(=O)Nc2cc(-c3ccc4ncnn4c3)cc3c2C(c2cc(F)ccc2Cl)NC3=O)C1 (mixture of isomers) [Compound I-1845]
17,10 to 100 µM,O=C1NC(c2cc(F)ccc2Cl)c2c(NC3CCNCC3)cc(-c3ccc4ncnn4c3)cc21 (stereo not drawn) [Compound I-2024]
18,10 to 100 µM,O=C1N[C@H](c2cc(F)ccc2Cl)c2c(NC(=O)N3C[C@@](O)(CO)c4ccccc43)cccc21 [Compound I-2167]
19,1 to 10 µM,"O=C(Nc1cc(-c2cn3ncnc3cn2)cc2c1[C@@H](c1cc(F)ccc1C(F)F)NC2=O)c1cc(F)cc(Cl)c1 (single isomer, unassigned) [Compound I-2258]"
20,1 to 10 µM,"O=C1N[C@H](c2cc(F)ccc2Cl)c2c(NC(=O)N3C[C@H](O)c4cc(F)ccc43)cc(-c3cnn(C(F)F)c3)cc21 (single isomer, unassigned) [Compound I-2475]"
21,10 to 100 µM,O=C1NC(c2cc(F)ccc2Cl)c2c(Nc3nnc4n3CCCC4)cc(-c3ccc4ncnn4c3)cc21 (stereo not drawn) [Compound I-2059]
22,10 to 100 µM,N#Cc1cccc2c1CCN2C(=O)Nc1cccc2c1C(c1cc(F)ccc1Cl)NC2=O (stereo not drawn) [Compound I-2425]
